Data on one compound can be found in paper PMC12418644, “Production, optimization and characterization of esterase isolated from a new endophytic Trichoderma afroharzianum strain AUMC 16,433 and its applications in dye decolorization” (Microbial Cell Factories, 2025).

This experiment has as its system T1, T. afroharzianum esterase (purified extracellular esterase).
T1 construct: 43 kDa by SDS-PAGE and gel filtration; monomeric
The experiment is described as follows: p-nitrophenol release at […] nm, Lineweaver-Burk plot. It counts as biochemical, Trichoderma afroharzianum. The conditions noted are these: 50 mM Tris pH 8, 37 °C (standard assay), 1-10 mM substrate.

As for `CC(=O)Oc1ccc([N+](=O)[O-])cc1` [p-NPA, p-nitrophenyl acetate], the Michaelis constant (Km) came out at 3.33 mM.

The Km is the concentration of substrate that gives half-maximal velocity.
